Target: Calcium/calmodulin-dependent protein kinase type II subunit delta (Homo sapiens, UniProt Q13557)
Assay: CaMKII delta Biochemical Assay
Experimental: The biochemical activity of recombinant CaMKIIδ was measured by monitoring the phosphorylation of a target peptide using Homogenous Time Resolved Fluorescence (HTRF) technology from CisBio Bioassays.

Calcium/calmodulin-dependent protein kinase type II subunit delta, sequence (Q13557 whole entry): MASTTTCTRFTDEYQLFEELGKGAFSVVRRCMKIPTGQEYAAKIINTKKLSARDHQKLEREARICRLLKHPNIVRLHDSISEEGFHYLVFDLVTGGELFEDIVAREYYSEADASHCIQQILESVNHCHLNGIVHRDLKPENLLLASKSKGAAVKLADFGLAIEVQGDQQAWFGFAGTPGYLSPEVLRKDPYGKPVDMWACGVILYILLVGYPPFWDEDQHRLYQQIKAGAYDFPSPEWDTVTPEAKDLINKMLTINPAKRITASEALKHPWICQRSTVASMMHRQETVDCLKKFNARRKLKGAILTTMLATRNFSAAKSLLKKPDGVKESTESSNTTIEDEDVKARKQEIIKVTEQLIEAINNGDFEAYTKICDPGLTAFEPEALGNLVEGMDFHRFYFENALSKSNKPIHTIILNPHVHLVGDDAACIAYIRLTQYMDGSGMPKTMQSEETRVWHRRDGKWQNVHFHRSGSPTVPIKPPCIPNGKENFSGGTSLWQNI

| IC50 [nM] | Compound |
| --- | --- |
| 0.1 | CCN(CC)[C@@H](C)CNC(=O)c1cc(OCCN(C)C)nc(-c2cnn3ccc(-c4cccs4)nc23)c1 [US10100058, Example 347] |
| 9.25 | COC1CN(c2cc(C(=O)N3CC[C@H](N)C3)cc(-c3cnn4ccc(-c5cccs5)nc34)n2)C1 [US10100058, Example 327] |
| 0.33 | CCN(CC)[C@@H](C)CNC(=O)c1cc(-c2cnn3ccc(-c4cccs4)nc23)nc(N2CC[C@H]2C(=O)NCCO)c1 [US10100058, Example 297] |
| 9.11 | CN(CCn1ccnc1)c1cc(C(=O)N2CC3CCC(C2)NC3)cc(-c2cnn3ccc(-c4cccs4)nc23)n1 (stereo not drawn) [US10100058, Example 321] |

Second part, the compound before the results:

| Compound | IC50 [nM] |
| --- | --- |
| CC(C)(N)CNC(=O)c1ccnc(-c2cnn3ccc(-c4ccccc4)nc23)c1 [US10100058, Example 64] | 99.9 |
| CCN(CC)[C@@H](C)CNC(=O)c1cc(-c2cnn3ccc(-c4cccs4)nc23)nc(N2CC(NS(=O)(=O)Cc3ccon3)C2)c1 [US10100058, Example 175] | 0.24 |
| CCC(N)CNC(=O)c1ccnc(-c2cnn3ccc(-c4cccs4)nc23)c1 (stereo not drawn) [US10100058, Example 25] | 8.62 |
| CCN(CC)[C@@H](CO)CNC(=O)c1ccnc(-c2cnn3ccc(-c4ccccc4)nc23)c1 [US10100058, Example 58] | 3.35 |

Source: BindingDB's records for patent US10100058 (Gilead Sciences, 2018)
